Data on one substance can be found in publication PMC4261083, “An atypical residue in the pore of Varroa destructor GABA-activated RDL receptors affects picrotoxin block and thymol modulation” (Insect Biochemistry and Molecular Biology, 2014).

Changes are numbered by the printed parent chain.

Experiment in all cases: Picrotoxin inhibition of GABA responses, two electrode voltage clamp in Xenopus oocytes
What all share (format): cell-based

For assay [1], the target named is T1, A21′Q mutant Drosophila RDL receptor (Drosophila melanogaster, UniProt P25123, A320Q).
T1 construct: expressed in transfected cells; host or cells: Xenopus laevis oocytes injected with cRNA
T1 sequence (P25123 45-606 A320Q): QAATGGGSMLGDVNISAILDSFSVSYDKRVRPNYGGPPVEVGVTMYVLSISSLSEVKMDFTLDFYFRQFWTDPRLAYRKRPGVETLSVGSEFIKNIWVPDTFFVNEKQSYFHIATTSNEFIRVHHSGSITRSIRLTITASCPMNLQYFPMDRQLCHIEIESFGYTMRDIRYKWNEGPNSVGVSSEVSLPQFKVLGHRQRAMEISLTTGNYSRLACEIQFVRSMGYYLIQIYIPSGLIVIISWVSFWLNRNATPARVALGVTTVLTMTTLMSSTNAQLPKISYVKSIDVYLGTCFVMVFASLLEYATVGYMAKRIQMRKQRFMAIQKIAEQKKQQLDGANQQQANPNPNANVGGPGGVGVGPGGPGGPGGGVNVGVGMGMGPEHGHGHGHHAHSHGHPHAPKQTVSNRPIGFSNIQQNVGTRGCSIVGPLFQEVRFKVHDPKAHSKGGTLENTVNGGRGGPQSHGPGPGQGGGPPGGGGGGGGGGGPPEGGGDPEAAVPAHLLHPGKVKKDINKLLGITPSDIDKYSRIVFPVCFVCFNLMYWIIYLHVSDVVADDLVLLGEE
On the procedure:
(§1) X. laevis oocyte-positive females were purchased from NASCO (Fort Atkinson, Wisconsin, USA) and maintained according to standard methods. Harvested stage V-VI Xenopus oocytes were washed in four changes of ND96 (96 mM NaCl, 2 mM KCl, 1 mM MgCl2, 1 mM CaCl2, 5 mM HEPES, pH 7.5), de-folliculated in 1.5 mg ml^−1 collagenase Type 1A for approximately 2 h, washed again in four changes of ND96 and stored in ND96 containing 2.5 mM sodium pyruvate, 0.7 mM theophylline and […].
(§2) Drosophila RDL subunit cDNA (kindly gifted from N.Millar) was subcloned into pGEMHE for oocyte expression as previously described ([McGonigle and Lummis, 2010], [Millar et al., 1994]). Site directed mutagenesis was performed with the QuikChange mutagenesis kit (Agilent, La Jolla, CA). cRNA was transcribed in vitro from linearised pGEMHE cDNA template using the mMessage mMachine T7 Transcription kit (Ambion, Austin, Texas, USA). Stage V and VI oocytes were injected with 5 ng cRNA, incubated at 18 °C, and currents recorded 18–24 h post-injection.
(§3) Xenopus oocytes were clamped at −60 mV using an OC-725 amplifier (Warner Instruments, Connecticut, USA), Digidata 1322A and the Strathclyde Electrophysiology Software Package (Department of Physiology and Pharmacology, University of Strathclyde, UK), or using the Roboocyte (MultiChannel Systems). Currents were recorded at 5 kHz and filtered at a frequency of 1 kHz. Micro-electrodes were fabricated from borosilicate glass (GC120TF-10, Harvard Apparatus, Edenbridge, Kent, UK) using a one stage horizontal pull (P-87, Sutter Instrument Company, California, USA) and filled with 3 M KCl. Pipette resistances ranged from 1.0 to 2.0 MΩ. Oocytes were perfused with ND96 at a constant rate of 12 ml min^−1. Drug application was via a simple gravity fed system calibrated to run at the same rate.
(§4) Analysis and curve fitting was performed using Prism v5 (GraphPad Software, San Diego, California, USA). Concentration-response data for each oocyte was normalised to the maximum current for that oocyte. The mean and S.E.M. for a series of oocytes were fitted to the four parameter logistic equation in Prism.

Assay [2] concerns the target T2, N-7′H mutant Drosophila RDL receptor (Drosophila melanogaster, UniProt P25123, N292H).
T2 construct: expressed in transfected cells; host or cells: Xenopus laevis oocytes injected with cRNA
T2 sequence (P25123 45-606 N292H): T1 sequence (P25123 45-606 A320Q) with N248H, Q276A
The settings on record: N-7′H RDL. On the procedure: as §1, §2, §3, §4

Assay [3] concerns the target T3, T6′M mutant Drosophila RDL receptor (Drosophila melanogaster, UniProt P25123, T305M).
T3 construct: expressed in transfected cells; host or cells: Xenopus laevis oocytes injected with cRNA
T3 sequence (P25123 45-606 T305M): T1 sequence (P25123 45-606 A320Q) with T261M, Q276A
The procedure:
as §1, §2, §3, §4

As for picrotoxin, the IC50 in assay [1] is 0.36 µM; in assay [2], 0.56 µM; in assay [3] (inhibition of GABA responses, read-out: Picrotoxin pIC50 (converted)) it was greater than 100 µM. For the same substance, the “Picrotoxin pIC50” value in assay [1] stood at 6.45 ± 0.25; in assay [2], 6.25 ± 0.64. The “Sensitivity to PTX” value in assay [3] (PTX up to 100 μM) is recorded as “insensitive”.
